# Experimental data reported in PMC10318822, “Phase 1 dose-escalation study to evaluate the safety, tolerability, pharmacokinetics, and anti-tumor activity of FCN-159 in adults with neurofibromatosis type 1-related unresectable plexiform neurofibromas” (BMC Medicine, 2023).
# Test system: adult patients with NF1-related PN
# Assay: Phase I dose-escalation: DLT, MTD, RP2D and drug-related TEAEs (CTCAE v5.0)
# Method: This is a multicenter, open-label, single-arm, non-randomized, phase I dose-escalation trial to evaluate the safety, tolerability, pharmacokinetic (PK), and anti-tumor activity of orally administered FCN-159 in adult patients with NF1 (NCT04954001). Phase I commenced with dose escalation in adult patients following a standard 3 + 3 design (Supplementary Table S1) to determine the maximum tolerated dose (MTD) of FCN-159 administered daily under fasting conditions (defined as no food or drink 1 h before and 2 h after each dose) in 28-day cycles. Study drug was dispensed at the study site and patient adherence was monitored by the records of drug dispensation and return. Patients were on treatment until PD, death, patient's voluntary withdrawal from study treatment, or study termination. The study was followed for 2 years after the last patient in. The starting dose was 4 mg, escalating in cohorts of at least three evaluable patients at 6 mg, 8 mg, and 12 mg until the MTD was determined. The starting dose in this study was determined based on available data from a phase 1a, first-in-human study of FCN-159 in patients with advanced NRAS ^mut+ melanoma at the time of study design. […] Dose expansion at a likely RP2D level enrolled approximately six patients. The highest dose level with a dose-limiting toxicity (DLT) incidence rate ≤ 33% (0/3 or 1/6 patients) was to be considered the MTD. If patients experienced grade ≥ 3 and/or unacceptable toxic events that were considered as at least possibly related to the study treatment, the study treatment was discontinued and supportive treatment was given in accordance with local treatment routines. If the toxicity returned to grade ≤ 2 within 28 days after the occurrence, and there was no progression on patients’ conditions or the investigator believed that patients could benefit from the study treatment, the original dose could be maintained or reduced after discussion with medical monitor. After completion of the dose escalation part of the study, PK, efficacy, safety, and tolerability data were analyzed to select the RP2D.
# Primary endpoints of the study were the DLT incidence rate, MTD, and RP2D. Secondary endpoints included other safety assessments, imaging tumor response (complete response [CR], PR, stable disease [SD], or progressive disease [PD]), and PK parameters of FCN-159. Adverse events were graded per CTCAE v5.0.
# All patients underwent a complete medical history, physical examination, Eastern Cooperative Oncology Group (ECOG) assessment, and laboratory analysis of test results. Drug-related TEAEs, serious adverse events (SAEs), TEAEs of grade ≥ 3 toxicity, and TEAEs leading to drug discontinuation were reviewed on an ongoing basis. Efficacy was assessed by radiologic scans and clinical assessment. Tumor assessments per Response Evaluation in Neurofibromatosis Schwannomatosis criteria were performed by investigators using MRI volumetric analysis every 4 cycles within the first 2 years (± 7 days) and every 6 cycles after 2 years (± 14 days) until PD, death, patient's voluntary withdrawal from study treatment, or study termination. MRI sequences of […], T1- and T2-weighted sequences were chosen and the software of Extended Brilliance Workspace, SIGNA Premier and uExceed were used for MRI volumetric analysis. The same software was used for all tumor assessments at baseline and subsequent assessed timepoints of the same patient. Pain was assessed by an 11-point numerical rating scale (NRS-11).
# The sample size for the dose-escalation study was estimated to be 24 based on the 3 + 3 method. Safety was analyzed in patients who received at least one dose of FCN-159 and had at least one safety assessment. DLT was assessed in the DLT analysis set, defined as patients who were enrolled in the dose-escalation study and met the DLT evaluation criteria.
compound,measurement,setting,value
Cn1c(=O)c(F)c(Nc2ccc(I)cc2F)c2c(=O)n(C3CC3)nc(-c3cccc(NS(=O)(=O)C4CC4)c3)c21 [FCN-159],Drug-related TEAE: Decreased appetite,6 mg (N = 4),0 n (%)
same,Drug-related TEAE: Dermatitis acneiform,6 mg (N = 4),0 n (%)
same,Drug-related TEAE: Diarrhea,6 mg (N = 4),0 n (%)
same,Drug-related TEAE: Drug eruption,6 mg (N = 4),2 (50.0) n (%)
same,Drug-related TEAE: Dyslipidemia,6 mg (N = 4),0 n (%)
same,Drug-related TEAE: Ejection fraction decreased,6 mg (N = 4),0 n (%)
same,Drug-related TEAE: Electrocardiogram QT prolonged,6 mg (N = 4),0 n (%)
same,Drug-related TEAE: Electrocardiogram abnormal,6 mg (N = 4),0 n (%)
same,Drug-related TEAE: Epistaxis,6 mg (N = 4),0 n (%)
same,Drug-related TEAE: Folliculitis,6 mg (N = 4),1 (25.0) n (%)
same,Drug-related TEAE: Functional gastrointestinal disorder,6 mg (N = 4),0 n (%)
same,Drug-related TEAE: Gamma-glutamyltransferase increased,6 mg (N = 4),1 (25.0) n (%)
same,Drug-related TEAE: Gingival pain,6 mg (N = 4),0 n (%)
same,Drug-related TEAE: Hyperlipidemia,6 mg (N = 4),0 n (%)
same,Drug-related TEAE: Hypertension,6 mg (N = 4),0 n (%)
same,Drug-related TEAE: Hypoalbuminemia,6 mg (N = 4),0 n (%)
same,Drug-related TEAE: Hypocalcemia,6 mg (N = 4),1 (25.0) n (%)
same,Drug-related TEAE: Hypophosphatemia,6 mg (N = 4),0 n (%)
same,Drug-related TEAE: Hypoproteinemia,6 mg (N = 4),0 n (%)
same,Drug-related TEAE: Immunoglobulins increased,6 mg (N = 4),1 (25.0) n (%)
same,Drug-related TEAE: Impetigo,6 mg (N = 4),0 n (%)
same,Drug-related TEAE: Left atrial enlargement,6 mg (N = 4),0 n (%)
same,Drug-related TEAE: Lipoprotein abnormal,6 mg (N = 4),0 n (%)
same,Drug-related TEAE: Malaise,6 mg (N = 4),0 n (%)
same,Drug-related TEAE: Menstrual disorder,6 mg (N = 4),0 n (%)
same,Drug-related TEAE: Mitral valve incompetence,6 mg (N = 4),1 (25.0) n (%)
same,Drug-related TEAE: Mouth ulceration,6 mg (N = 4),0 n (%)
same,Drug-related TEAE: Muscular weakness,6 mg (N = 4),0 n (%)
same,Drug-related TEAE: Oedema peripheral,6 mg (N = 4),1 (25.0) n (%)
same,Drug-related TEAE: Pain in extremity,6 mg (N = 4),0 n (%)
same,Drug-related TEAE: Paronychia,6 mg (N = 4),2 (50.0) n (%)
same,Drug-related TEAE: Prealbumin decreased,6 mg (N = 4),0 n (%)
same,Drug-related TEAE: Protein urine present,6 mg (N = 4),2 (50.0) n (%)
same,Drug-related TEAE: Pruritus,6 mg (N = 4),0 n (%)
same,Drug-related TEAE: QRS axis abnormal,6 mg (N = 4),0 n (%)
same,Drug-related TEAE: Rash,6 mg (N = 4),1 (25.0) n (%)
same,Drug-related TEAE: Sinus arrhythmia,6 mg (N = 4),0 n (%)
same,Drug-related TEAE: Sinus bradycardia,6 mg (N = 4),0 n (%)
same,Drug-related TEAE: Sinusitis,6 mg (N = 4),0 n (%)
same,Drug-related TEAE: Skin exfoliation,6 mg (N = 4),0 n (%)
same,Drug-related TEAE: Specific gravity urine increased,6 mg (N = 4),2 (50.0) n (%)
same,Drug-related TEAE: Stomatitis,6 mg (N = 4),2 (50.0) n (%)
same,Drug-related TEAE: Supraventricular extrasystoles,6 mg (N = 4),0 n (%)
same,Drug-related TEAE: Total bile acids increased,6 mg (N = 4),2 (50.0) n (%)
same,Drug-related TEAE: Tricuspid valve incompetence,6 mg (N = 4),1 (25.0) n (%)
same,Drug-related TEAE: Urinary occult blood positive,6 mg (N = 4),1 (25.0) n (%)
same,Drug-related TEAE: Urinary sediment present,6 mg (N = 4),0 n (%)
same,Drug-related TEAE: Urinary tract infection,6 mg (N = 4),1 (25.0) n (%)
same,Drug-related TEAE: Urine ketone body present,6 mg (N = 4),0 n (%)
same,Drug-related TEAE: Urobilinogen urine increased,6 mg (N = 4),2 (50.0) n (%)
same,Drug-related TEAE: Urticaria,6 mg (N = 4),0 n (%)
same,Drug-related TEAE: Vision blurred,6 mg (N = 4),0 n (%)
same,Drug-related TEAE: Visual acuity reduced,6 mg (N = 4),1 (25.0) n (%)
same,Drug-related TEAE: pH urine decreased,6 mg (N = 4),1 (25.0) n (%)
same,Drug-related TEAE: pH urine increased,6 mg (N = 4),0 n (%)
same,Subjects with any drug-related TEAE,6 mg (N = 4),4 (100) n (%)
same,Drug-related TEAE: Abdominal pain,8 mg (N = 8),1 (12.5) n (%)
same,Drug-related TEAE: Acne,8 mg (N = 8),0 n (%)
same,Drug-related TEAE: Acne pustular,8 mg (N = 8),1 (12.5) n (%)
same,Drug-related TEAE: Alanine aminotransferase increased,8 mg (N = 8),1 (12.5) n (%)
same,Drug-related TEAE: Albumin globulin ratio decreased,8 mg (N = 8),1 (12.5) n (%)
same,Drug-related TEAE: Alopecia,8 mg (N = 8),1 (12.5) n (%)
same,Drug-related TEAE: Amylase increased,8 mg (N = 8),0 n (%)
same,Drug-related TEAE: Anemia,8 mg (N = 8),1 (12.5) n (%)
same,Drug-related TEAE: Aortic dilatation,8 mg (N = 8),1 (12.5) n (%)
same,Drug-related TEAE: Aspartate aminotransferase increased,8 mg (N = 8),0 n (%)
same,Drug-related TEAE: Asthenia,8 mg (N = 8),0 n (%)
same,Drug-related TEAE: Beta globulin decreased,8 mg (N = 8),0 n (%)
same,Drug-related TEAE: Beta globulin increased,8 mg (N = 8),0 n (%)
same,Drug-related TEAE: Blood alkaline phosphatase increased,8 mg (N = 8),3 (37.5) n (%)
same,Drug-related TEAE: Blood bilirubin increased,8 mg (N = 8),2 (25.0) n (%)
same,Drug-related TEAE: Blood creatine phosphokinase increased,8 mg (N = 8),2 (25.0) n (%)
same,Drug-related TEAE: Blood fibrinogen increased,8 mg (N = 8),0 n (%)
same,Drug-related TEAE: Blood lactate dehydrogenase increased,8 mg (N = 8),1 (12.5) n (%)
same,Drug-related TEAE: Blood pressure increased,8 mg (N = 8),0 n (%)
same,Drug-related TEAE: Blood urea increased,8 mg (N = 8),1 (12.5) n (%)
same,Drug-related TEAE: Blood uric acid increased,8 mg (N = 8),0 n (%)
same,Drug-related TEAE: Breath odor,8 mg (N = 8),1 (12.5) n (%)
same,Drug-related TEAE: Capillary disorder,8 mg (N = 8),0 n (%)
same,Drug-related TEAE: Constipation,8 mg (N = 8),1 (12.5) n (%)
same,Drug-related TEAE: Decreased appetite,8 mg (N = 8),1 (12.5) n (%)
same,Drug-related TEAE: Dermatitis acneiform,8 mg (N = 8),1 (12.5) n (%)
same,Drug-related TEAE: Diarrhea,8 mg (N = 8),1 (12.5) n (%)
same,Drug-related TEAE: Drug eruption,8 mg (N = 8),2 (25.0) n (%)
same,Drug-related TEAE: Dyslipidemia,8 mg (N = 8),1 (12.5) n (%)
same,Drug-related TEAE: Ejection fraction decreased,8 mg (N = 8),1 (12.5) n (%)
same,Drug-related TEAE: Electrocardiogram QT prolonged,8 mg (N = 8),1 (12.5) n (%)
same,Drug-related TEAE: Electrocardiogram abnormal,8 mg (N = 8),0 n (%)
same,Drug-related TEAE: Epistaxis,8 mg (N = 8),1 (12.5) n (%)
same,Drug-related TEAE: Folliculitis,8 mg (N = 8),4 (50.0) n (%)
same,Drug-related TEAE: Functional gastrointestinal disorder,8 mg (N = 8),1 (12.5) n (%)
same,Drug-related TEAE: Gamma-glutamyltransferase increased,8 mg (N = 8),0 n (%)
same,Drug-related TEAE: Gingival pain,8 mg (N = 8),1 (12.5) n (%)
same,Drug-related TEAE: Hyperlipidemia,8 mg (N = 8),0 n (%)
same,Drug-related TEAE: Hypertension,8 mg (N = 8),1 (12.5) n (%)
same,Drug-related TEAE: Hypoalbuminemia,8 mg (N = 8),1 (12.5) n (%)
same,Drug-related TEAE: Hypocalcemia,8 mg (N = 8),1 (12.5) n (%)
same,Drug-related TEAE: Hypophosphatemia,8 mg (N = 8),1 (12.5) n (%)
same,Drug-related TEAE: Hypoproteinemia,8 mg (N = 8),1 (12.5) n (%)
same,Drug-related TEAE: Immunoglobulins increased,8 mg (N = 8),1 (12.5) n (%)
same,Drug-related TEAE: Impetigo,8 mg (N = 8),0 n (%)
same,Drug-related TEAE: Left atrial enlargement,8 mg (N = 8),1 (12.5) n (%)
same,Drug-related TEAE: Lipoprotein abnormal,8 mg (N = 8),0 n (%)
same,Drug-related TEAE: Malaise,8 mg (N = 8),0 n (%)
same,Drug-related TEAE: Menstrual disorder,8 mg (N = 8),0 n (%)
same,Drug-related TEAE: Mitral valve incompetence,8 mg (N = 8),2 (25.0) n (%)
